Laboratory results taken from PMC2843925 (ACS chemical neuroscience, 2010).

What was measured:
[1] = biological target: DAT; conditions: known DAT ligands; ref Ukairo et al. ([12]); cited from earlier work
[2] = biological target: T1, hSERT (Homo sapiens, UniProt P31645); experiment: [125I]-RTI-55 binding, HEK-hSERT membranes; conditions: for Hill coefficient: [125I]-RTI-55 binding
[3] = biological target: T2, hDAT (Homo sapiens, UniProt Q01959); experiment: [125I]-RTI-55 binding, HEK-hDAT membranes; conditions: for Hill coefficient: [125I]-RTI-55 binding
T2 sequence (Q01959 whole entry): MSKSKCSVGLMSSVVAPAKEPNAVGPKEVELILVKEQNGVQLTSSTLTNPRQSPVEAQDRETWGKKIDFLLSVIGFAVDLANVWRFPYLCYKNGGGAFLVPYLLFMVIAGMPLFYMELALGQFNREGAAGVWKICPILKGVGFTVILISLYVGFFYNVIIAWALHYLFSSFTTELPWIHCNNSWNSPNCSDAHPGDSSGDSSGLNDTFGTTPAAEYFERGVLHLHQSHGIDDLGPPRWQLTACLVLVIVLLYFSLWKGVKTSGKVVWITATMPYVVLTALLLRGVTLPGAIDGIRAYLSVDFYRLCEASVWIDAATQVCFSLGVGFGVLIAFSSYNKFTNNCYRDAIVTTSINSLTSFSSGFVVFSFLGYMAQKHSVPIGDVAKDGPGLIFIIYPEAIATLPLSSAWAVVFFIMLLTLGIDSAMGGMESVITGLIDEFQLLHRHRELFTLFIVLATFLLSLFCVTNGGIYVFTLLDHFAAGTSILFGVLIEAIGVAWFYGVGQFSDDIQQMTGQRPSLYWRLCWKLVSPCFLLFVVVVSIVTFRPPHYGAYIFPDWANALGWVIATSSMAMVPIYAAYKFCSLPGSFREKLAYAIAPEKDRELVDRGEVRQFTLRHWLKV

[4] = biological target: T3, hNET (Homo sapiens, UniProt P23975); format: binding
T3 sequence (P23975 whole entry): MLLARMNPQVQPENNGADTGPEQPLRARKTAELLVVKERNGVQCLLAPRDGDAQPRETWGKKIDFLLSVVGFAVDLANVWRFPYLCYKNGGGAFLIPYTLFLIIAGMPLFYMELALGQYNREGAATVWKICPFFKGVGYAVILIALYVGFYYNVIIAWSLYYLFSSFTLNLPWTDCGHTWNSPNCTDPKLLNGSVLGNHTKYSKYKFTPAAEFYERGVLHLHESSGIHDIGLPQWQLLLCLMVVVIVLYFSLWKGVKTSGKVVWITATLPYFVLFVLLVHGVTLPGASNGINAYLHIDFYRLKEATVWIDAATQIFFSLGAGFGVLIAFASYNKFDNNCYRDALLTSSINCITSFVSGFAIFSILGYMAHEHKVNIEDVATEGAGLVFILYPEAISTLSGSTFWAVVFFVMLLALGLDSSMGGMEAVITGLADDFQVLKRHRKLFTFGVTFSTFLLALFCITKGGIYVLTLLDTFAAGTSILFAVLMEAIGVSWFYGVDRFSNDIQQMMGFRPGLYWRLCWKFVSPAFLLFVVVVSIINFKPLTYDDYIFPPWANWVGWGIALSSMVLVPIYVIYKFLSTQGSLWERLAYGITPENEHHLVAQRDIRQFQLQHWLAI

[5] = ref [17]; cited from earlier work
[6] = biological target: T2, hDAT; experiment: [3H]-dopamine uptake inhibition in hDAT N2A cells
[7] = biological target: T1, hSERT; experiment: [3H]-serotonin uptake inhibition, HEK-hSERT cells; format: cell-based; conditions: read-out: [3H]-Serotonin uptake IC50, mean ± SEM
[8] = biological target: T2, hDAT; experiment: [3H]-WIN 35,428 binding displacement in hDAT N2A cells; conditions: 10 μM, pre- or co-incubation
[9] = biological target: T2, hDAT; experiment: [3H]-dopamine uptake inhibition, HEK-hDAT cells; format: cell-based; conditions: switch to HEK cells
[10] = biological target: T3, hNET; format: cell-based

T1 sequence (P31645 whole entry): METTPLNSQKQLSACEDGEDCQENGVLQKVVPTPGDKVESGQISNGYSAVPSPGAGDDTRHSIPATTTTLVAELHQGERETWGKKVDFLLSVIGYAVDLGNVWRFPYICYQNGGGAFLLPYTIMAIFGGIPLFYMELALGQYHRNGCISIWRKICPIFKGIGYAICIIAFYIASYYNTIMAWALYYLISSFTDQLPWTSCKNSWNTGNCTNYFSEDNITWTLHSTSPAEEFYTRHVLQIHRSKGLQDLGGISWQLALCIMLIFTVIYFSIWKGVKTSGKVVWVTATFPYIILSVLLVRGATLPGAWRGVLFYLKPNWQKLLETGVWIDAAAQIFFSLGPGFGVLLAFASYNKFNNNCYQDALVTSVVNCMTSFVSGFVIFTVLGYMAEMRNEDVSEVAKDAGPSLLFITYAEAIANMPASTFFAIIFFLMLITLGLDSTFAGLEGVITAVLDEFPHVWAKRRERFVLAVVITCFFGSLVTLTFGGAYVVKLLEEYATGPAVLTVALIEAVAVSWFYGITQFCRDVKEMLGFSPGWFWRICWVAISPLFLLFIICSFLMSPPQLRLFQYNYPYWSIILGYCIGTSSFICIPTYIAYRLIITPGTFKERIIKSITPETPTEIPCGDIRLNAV

With COC(=O)[C@H]1[C@@H](c2ccc(F)cc2)C[C@@H]2CC[C@H]1N2C [WIN 35,428, methyl (1R,2S,3S,5S)-3-(4-fluorophenyl)-8-methyl-8-azabicyclo[3.2.1]octane-2-carboxylate] as the compound, how does the “E pKi (experimental pKi)” value [1] read?
Its value is 7.70.

Which Hill coefficient ([2]; HEK-hSERT cells) does the source give for COC(=O)[C@H]1[C@@H](OC(=O)c2ccccc2)C[C@@H]2CC[C@H]1N2C [Cocaine, methyl (1R,2R,3S,5S)-3-benzoyloxy-8-methyl-8-azabicyclo[3.2.1]octane-2-carboxylate, reference compound] here?
Its Hill coefficient is -1.12 ± 0.03.

What about the Hill coefficient ([3]; HEK-hDAT cells) of the same compound?
The Hill coefficient was -0.81 ± 0.03.

For COC(=O)[C@@H]1CN(C)CC[C@@H]1c1ccc(Cl)cc1 [4-ARA-127, (1S, 3S, 4R)-4-(chlorophenyl)-3-[hydroxy(methyloxo)methyl]-1-methylpiperidin-1iium], which “E pKi (experimental pKi)” value [1] is on record?
The value was 5.48.

With OC1(c2ccc(Cl)cc2)c2ccccc2C2=NCCN21 (stereo not shown) [Mazindol, 5-(4-chlorophenyl)-2,3-dihydroimidazo[2,1-a]isoindol-5-ol] as the compound, how does the “E pKi (experimental pKi)” value [1] read?
Its value is 7.89.

Which results are given for C[C@@H](CN1CCC(Cc2ccccc2)CC1)[C@@H](O)c1ccc(O)cc1.Cl (relative stereo) [MI-4, [R-(R*, S*)]-α-(4-Hydroxyphenyl)-β-methyl-4-(phenylmethyl)-1-piperidinepropanol hydrochloride]?
Affinity at hNET higher than at hDAT ([4]; HEK cells): 10 fold; Hill coefficient ([4]; HEK-hNET cells, [125I]-RTI-55 binding): -1.04 ± 0.07; Ki ([4]; read-out: [125I]-RTI-55 binding Ki, HEK-hNET cells, mean ± SEM): 365 ± 68 nM; Crosses the blood-brain barrier [5]: crosses the blood-brain barrier; [3H]-dopamine uptake inhibition in screening assay ([6]; 10 μM): did not appreciably inhibit dopamine uptake; Shift of cocaine DUIP IC50 by MI-4 ([6]; 10 μM MI-4): approximately 3 fold; IC50 ([6]; read-out: Dopamine uptake inhibition potency (DUIP)): 28 µM; IC50 [7]: 790 ± 170 nM; Block of [3H]-WIN 35,428 binding in initial screen [8]: able to block [^3H]-WIN 35,428 binding in a statistically significant fashion; Affinity at hSERT higher than at hDAT ([2]; HEK cells): 5 fold; Hill coefficient ([2]; HEK-hSERT cells): -1.09 ± 0.04; Ki ([2]; read-out: [125I]-RTI-55 binding Ki, HEK-hSERT cells, mean ± SEM): 670 ± 100 nM; DUIP increase, HEK vs N2A cells [9]: 4 fold; DAT affinity lower than that of cocaine ([3]; HEK-hDAT cells): 20 fold; Hill coefficient ([3]; HEK-hDAT cells): -0.80 ± 0.10; Ki ([3]; read-out: [125I]-RTI-55 binding Ki, HEK-hDAT cells, mean ± SEM): 3.46 ± 0.26 µM; DAT affinity increase, HEK vs N2A cells ([3]; switch to HEK cells): ~2 fold; Substrate uptake inhibition potency at hNET greater than at hDAT ([10]; HEK cells): 3 – 4 fold; IC50 ([10]; read-out: [3H]-NE uptake IC50, HEK-hNET cells, mean ± SEM): 2090 ± 280 nM

For COC(=O)[C@H]1[C@@H](OC(=O)c2ccccc2)C[C@@H]2CC[C@H]1O2 [8-Oxa-norcocaine, methyl (1R,2R,3S,5S)-3-benzoyloxy-8-oxabicyclo[3.2.1]octane-2-carboxylate], which “E pKi (experimental pKi)” value [1] is on record?
Its value is 5.81.
